pIC50: −log10 of the molar value.

The source of these data is ChEMBL document CHEMBL4017512 (J Med Chem, 2017).

Test [1] relates to L1210. The experiment in a line: Antiproliferative activity against mouse L1210 cells after 72 hrs by phosphatase assay. The test is classed as functional, cell-based. The conditions noted are these: L1210, 72 h.
Test [2] has as its system HCT-116. The experiment in a line: Antiproliferative activity against human HCT116 cells after 72 hrs by phosphatase assay. The test is classed as functional, cell-based. The conditions noted are these: HCT-116, 72 h.
A short description of test [3]: Cytotoxicity against human HCT116/VM46 cells assessed as reduction in cell viability after 72 hrs by phosphatase assay. It is filed as cell-based. The conditions noted are these: HCT-116/VM46, 72 h.

For orientation: pIC50 means the negative decadic logarithm of the IC50, by convention in mol/L. In the case of `CC[C@]1(NC(=O)c2ccc3ccsc3c2)C[C@H]2CN(CCc3c([nH]c4ccccc34)[C@@](C(=O)OC)(c3cc4c(cc3OC)N(C)[C@H]3[C@@](O)(C(=O)OC)[C@H](OC(C)=O)[C@]5(CC)C=CCN6CC[C@]43[C@@H]65)C2)C1`, the results for the pIC50 in test [1], in test [2] and in test [3] were 8.51, 8.54 and 8.11, respectively.

For `CC[C@]1(NC(=O)/C=C/c2ccncc2)C[C@H]2CN(CCc3c([nH]c4ccccc34)[C@@](C(=O)OC)(c3cc4c(cc3OC)N(C)[C@H]3[C@@](O)(C(=O)OC)[C@H](OC(C)=O)[C@]5(CC)C=CCN6CC[C@]43[C@@H]65)C2)C1`, the pIC50 in test [1] was 9.22; in test [2], 9.15; in test [3] it was 7.30.

For `CC[C@]1(NC(=O)c2cccc(C)c2)C[C@H]2CN(CCc3c([nH]c4ccccc34)[C@@](C(=O)OC)(c3cc4c(cc3OC)N(C)[C@H]3[C@@](O)(C(=O)OC)[C@H](OC(C)=O)[C@]5(CC)C=CCN6CC[C@]43[C@@H]65)C2)C1`, the pIC50 was 9.30 in test [1], 9.15 in test [2] and 8.52 in test [3].

Turning to `CC[C@]1(NC(=O)c2ccc3c(c2)CCC3)C[C@H]2CN(CCc3c([nH]c4ccccc34)[C@@](C(=O)OC)(c3cc4c(cc3OC)N(C)[C@H]3[C@@](O)(C(=O)OC)[C@H](OC(C)=O)[C@]5(CC)C=CCN6CC[C@]43[C@@H]65)C2)C1`, the pIC50 is 8.30 in test [1], 8.25 in test [2] and 7.96 in test [3].

Regarding `CC[C@]1(NC(=O)c2ccsc2)C[C@H]2CN(CCc3c([nH]c4ccccc34)[C@@](C(=O)OC)(c3cc4c(cc3OC)N(C)[C@H]3[C@@](O)(C(=O)OC)[C@H](OC(C)=O)[C@]5(CC)C=CCN6CC[C@]43[C@@H]65)C2)C1`, the values for the negative-log IC50 (pIC50) in test [1], in test [2] and in test [3] were 9.30, 9.15 and 8.11, respectively.

As for `CC[C@]1(NC(=O)c2ccccc2OC(F)(F)F)C[C@H]2CN(CCc3c([nH]c4ccccc34)[C@@](C(=O)OC)(c3cc4c(cc3OC)N(C)[C@H]3[C@@](O)(C(=O)OC)[C@H](OC(C)=O)[C@]5(CC)C=CCN6CC[C@]43[C@@H]65)C2)C1`, the pIC50 in test [1] is 6.35; in test [2], 6.32; in test [3], 6.21.

With `CC[C@]1(NC(=O)c2ccc(OC)c(C)c2)C[C@H]2CN(CCc3c([nH]c4ccccc34)[C@@](C(=O)OC)(c3cc4c(cc3OC)N(C)[C@H]3[C@@](O)(C(=O)OC)[C@H](OC(C)=O)[C@]5(CC)C=CCN6CC[C@]43[C@@H]65)C2)C1`, the figures for the negative-log IC50 (pIC50) in test [1], in test [2] and in test [3] were 9.22, 9.15 and 8.28, respectively.

As to `CC[C@]1(NC(=O)c2ccc(NC(=O)OC(C)(C)C)cc2)C[C@H]2CN(CCc3c([nH]c4ccccc34)[C@@](C(=O)OC)(c3cc4c(cc3OC)N(C)[C@H]3[C@@](O)(C(=O)OC)[C@H](OC(C)=O)[C@]5(CC)C=CCN6CC[C@]43[C@@H]65)C2)C1`, the negative-log IC50 (pIC50) in test [1] was 9.52; in test [2], 9.52; in test [3], 7.52.

As for `CCOc1ccc(C(=O)N[C@@]2(CC)C[C@H]3CN(CCc4c([nH]c5ccccc45)[C@@](C(=O)OC)(c4cc5c(cc4OC)N(C)[C@H]4[C@@](O)(C(=O)OC)[C@H](OC(C)=O)[C@]6(CC)C=CCN7CC[C@]54[C@@H]76)C3)C2)cc1OCC`, the pIC50 in test [1] is 9.40; in test [2], 9.30; in test [3], 8.22.

With `CC[C@]1(NC(=O)c2ccc(C)c(N)c2)C[C@H]2CN(CCc3c([nH]c4ccccc34)[C@@](C(=O)OC)(c3cc4c(cc3OC)N(C)[C@H]3[C@@](O)(C(=O)OC)[C@H](OC(C)=O)[C@]5(CC)C=CCN6CC[C@]43[C@@H]65)C2)C1`, the pIC50 in test [1] was 9.22; in test [2], 9.15; in test [3], 7.60.

With `CC[C@]1(NS(=O)(=O)c2ccc(OC)cc2)C[C@H]2CN(CCc3c([nH]c4ccccc34)[C@@](C(=O)OC)(c3cc4c(cc3OC)N(C)[C@H]3[C@@](O)(C(=O)OC)[C@H](OC(C)=O)[C@]5(CC)C=CCN6CC[C@]43[C@@H]65)C2)C1`, the negative-log IC50 (pIC50) in test [1] was 7.46; in test [2], 7.52; in test [3], 6.62.

As for `CC[C@]1(NC(=O)c2cccs2)C[C@H]2CN(CCc3c([nH]c4ccccc34)[C@@](C(=O)OC)(c3cc4c(cc3OC)N(C)[C@H]3[C@@](O)(C(=O)OC)[C@H](OC(C)=O)[C@]5(CC)C=CCN6CC[C@]43[C@@H]65)C2)C1`, the figures for the pIC50 in test [1], in test [2] and in test [3] were 9.22, 9.22 and 8.17, respectively.

As for `CC[C@]1(NC(=O)c2ccc(C)c(OC)c2)C[C@H]2CN(CCc3c([nH]c4ccccc34)[C@@](C(=O)OC)(c3cc4c(cc3OC)N(C)[C@H]3[C@@](O)(C(=O)OC)[C@H](OC(C)=O)[C@]5(CC)C=CCN6CC[C@]43[C@@H]65)C2)C1`, the values for the pIC50 in test [1], in test [2] and in test [3] were 8.38, 8.48 and 8.16, respectively.

Take `CC[C@]1(NC(=O)c2ccnnc2)C[C@H]2CN(CCc3c([nH]c4ccccc34)[C@@](C(=O)OC)(c3cc4c(cc3OC)N(C)[C@H]3[C@@](O)(C(=O)OC)[C@H](OC(C)=O)[C@]5(CC)C=CCN6CC[C@]43[C@@H]65)C2)C1`: the pIC50 in test [1] is 7.52; in test [2] it was 8.05; in test [3], 6.15.

With `CC[C@]1(NC(=O)c2nc3ccccc3s2)C[C@H]2CN(CCc3c([nH]c4ccccc34)[C@@](C(=O)OC)(c3cc4c(cc3OC)N(C)[C@H]3[C@@](O)(C(=O)OC)[C@H](OC(C)=O)[C@]5(CC)C=CCN6CC[C@]43[C@@H]65)C2)C1`, the results for the pIC50 in test [1], in test [2] and in test [3] were 6.74, 7.10 and 6.33, respectively.

In the case of `CC[C@]1(NC(=O)c2ccccc2F)C[C@H]2CN(CCc3c([nH]c4ccccc34)[C@@](C(=O)OC)(c3cc4c(cc3OC)N(C)[C@H]3[C@@](O)(C(=O)OC)[C@H](OC(C)=O)[C@]5(CC)C=CCN6CC[C@]43[C@@H]65)C2)C1`, the negative-log IC50 (pIC50) was 8.08 in test [1], 8.11 in test [2] and 7.12 in test [3].

As for `CC[C@]1(NC(=O)c2ccc(C(F)(F)F)cc2)C[C@H]2CN(CCc3c([nH]c4ccccc34)[C@@](C(=O)OC)(c3cc4c(cc3OC)N(C)[C@H]3[C@@](O)(C(=O)OC)[C@H](OC(C)=O)[C@]5(CC)C=CCN6CC[C@]43[C@@H]65)C2)C1`, the results for the pIC50 in test [1], in test [2] and in test [3] were 8.37, 8.48 and 7.26, respectively.

Turning to `CC[C@]1(NC(=O)c2ccccc2C(F)(F)F)C[C@H]2CN(CCc3c([nH]c4ccccc34)[C@@](C(=O)OC)(c3cc4c(cc3OC)N(C)[C@H]3[C@@](O)(C(=O)OC)[C@H](OC(C)=O)[C@]5(CC)C=CCN6CC[C@]43[C@@H]65)C2)C1`, the pIC50 was 7.35 in test [1], 7.22 in test [2] and 6.27 in test [3].

With `CC[C@]1(NC(=O)c2ccc3cnccc3c2)C[C@H]2CN(CCc3c([nH]c4ccccc34)[C@@](C(=O)OC)(c3cc4c(cc3OC)N(C)[C@H]3[C@@](O)(C(=O)OC)[C@H](OC(C)=O)[C@]5(CC)C=CCN6CC[C@]43[C@@H]65)C2)C1`, the pIC50 in test [1] is 9.22; in test [2] it was 9.22; in test [3], 8.14.
